The structures appear in SMILES notation. The source made the active and inactive calls. No cut-off for these calls is given here.

One may read the IC50 as the concentration that gives 50% inhibition. Low values mean greater potency, high ones weaker potency.

One data set deals with HL-60. Kind of data set: Cytotoxicity against human HL60 cells at 25 uM after 48 hrs by WST8 assay. It counts as functional, cell-based. (In general: Tetrazolium assays rely on reduction of a dye to a coloured formazan, in cell work by metabolically active cells.)
The next data set relates to PANC-1. Kind of data set: Cytotoxicity against human PANC1 cells at 25 uM after 48 hrs by WST8 assay. It is filed as functional, cell-based.
The next data set deals with MRC5. The data set can be described thus: Cytotoxicity against human MRC5 cells at 25 uM after 48 hrs by WST8 assay. It is filed as cell-based. The settings on record: mrc5, 48 h.
For the next data set, the system named is A549. The data set can be described thus: Cytotoxicity against human A549 cells at 25 uM after 48 hrs by WST8 assay. It is filed as functional, cell-based.
The test system of a further data set is PC-3. Kind of data set: Cytotoxicity against human PC3 cells at 25 uM after 48 hrs by WST8 assay. It counts as functional, cell-based.
Data set [1] deals with DNA topoisomerase 2-alpha (Homo sapiens, UniProt P11388). Kind of data set: Inhibition of human DNA topoisomerase 2-mediated relaxation of supercoiled DNA by gel electrophoresis.
DNA topoisomerase 2-alpha, sequence (P11388 whole entry): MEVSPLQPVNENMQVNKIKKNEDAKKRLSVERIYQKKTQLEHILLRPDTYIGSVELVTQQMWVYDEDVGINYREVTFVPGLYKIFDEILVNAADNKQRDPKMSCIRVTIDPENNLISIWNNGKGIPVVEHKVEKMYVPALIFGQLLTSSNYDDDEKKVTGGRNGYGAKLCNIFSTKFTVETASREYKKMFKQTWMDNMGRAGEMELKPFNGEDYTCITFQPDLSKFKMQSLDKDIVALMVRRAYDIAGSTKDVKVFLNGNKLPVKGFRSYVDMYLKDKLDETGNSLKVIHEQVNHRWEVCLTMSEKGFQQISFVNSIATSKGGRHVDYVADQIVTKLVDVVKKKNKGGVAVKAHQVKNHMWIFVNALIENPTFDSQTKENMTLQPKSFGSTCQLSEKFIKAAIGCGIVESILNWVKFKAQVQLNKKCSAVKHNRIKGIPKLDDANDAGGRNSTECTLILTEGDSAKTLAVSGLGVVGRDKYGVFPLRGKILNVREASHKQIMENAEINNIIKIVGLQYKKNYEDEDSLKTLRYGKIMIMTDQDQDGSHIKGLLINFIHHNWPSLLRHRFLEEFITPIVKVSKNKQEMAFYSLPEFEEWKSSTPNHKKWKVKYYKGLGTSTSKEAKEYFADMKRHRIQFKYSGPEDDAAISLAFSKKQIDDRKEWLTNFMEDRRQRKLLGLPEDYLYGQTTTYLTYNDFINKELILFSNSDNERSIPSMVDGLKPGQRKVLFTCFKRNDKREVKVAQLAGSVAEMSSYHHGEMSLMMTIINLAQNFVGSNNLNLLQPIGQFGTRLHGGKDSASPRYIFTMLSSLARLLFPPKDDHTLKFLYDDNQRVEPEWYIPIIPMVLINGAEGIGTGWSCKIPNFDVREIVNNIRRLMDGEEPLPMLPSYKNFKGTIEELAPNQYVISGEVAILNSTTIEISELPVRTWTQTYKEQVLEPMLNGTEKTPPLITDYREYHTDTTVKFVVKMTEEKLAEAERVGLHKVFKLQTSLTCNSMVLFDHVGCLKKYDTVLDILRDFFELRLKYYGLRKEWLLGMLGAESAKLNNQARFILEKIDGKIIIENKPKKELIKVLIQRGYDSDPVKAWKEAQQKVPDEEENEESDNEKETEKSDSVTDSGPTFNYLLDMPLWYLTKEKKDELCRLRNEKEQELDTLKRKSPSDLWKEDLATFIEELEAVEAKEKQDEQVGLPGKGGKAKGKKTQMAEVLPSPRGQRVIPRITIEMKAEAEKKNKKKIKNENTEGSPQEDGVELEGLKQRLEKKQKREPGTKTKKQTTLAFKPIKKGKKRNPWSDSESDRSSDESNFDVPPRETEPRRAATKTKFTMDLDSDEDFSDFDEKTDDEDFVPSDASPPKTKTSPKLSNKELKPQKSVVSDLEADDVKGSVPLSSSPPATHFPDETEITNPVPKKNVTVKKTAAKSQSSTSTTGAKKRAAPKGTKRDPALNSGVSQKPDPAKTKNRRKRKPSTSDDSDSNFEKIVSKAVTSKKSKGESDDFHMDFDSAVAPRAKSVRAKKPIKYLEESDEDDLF
In another data set the target is T1, DNA topoisomerase 1 (Homo sapiens, UniProt P11387).
T1 sequence (P11387 whole entry): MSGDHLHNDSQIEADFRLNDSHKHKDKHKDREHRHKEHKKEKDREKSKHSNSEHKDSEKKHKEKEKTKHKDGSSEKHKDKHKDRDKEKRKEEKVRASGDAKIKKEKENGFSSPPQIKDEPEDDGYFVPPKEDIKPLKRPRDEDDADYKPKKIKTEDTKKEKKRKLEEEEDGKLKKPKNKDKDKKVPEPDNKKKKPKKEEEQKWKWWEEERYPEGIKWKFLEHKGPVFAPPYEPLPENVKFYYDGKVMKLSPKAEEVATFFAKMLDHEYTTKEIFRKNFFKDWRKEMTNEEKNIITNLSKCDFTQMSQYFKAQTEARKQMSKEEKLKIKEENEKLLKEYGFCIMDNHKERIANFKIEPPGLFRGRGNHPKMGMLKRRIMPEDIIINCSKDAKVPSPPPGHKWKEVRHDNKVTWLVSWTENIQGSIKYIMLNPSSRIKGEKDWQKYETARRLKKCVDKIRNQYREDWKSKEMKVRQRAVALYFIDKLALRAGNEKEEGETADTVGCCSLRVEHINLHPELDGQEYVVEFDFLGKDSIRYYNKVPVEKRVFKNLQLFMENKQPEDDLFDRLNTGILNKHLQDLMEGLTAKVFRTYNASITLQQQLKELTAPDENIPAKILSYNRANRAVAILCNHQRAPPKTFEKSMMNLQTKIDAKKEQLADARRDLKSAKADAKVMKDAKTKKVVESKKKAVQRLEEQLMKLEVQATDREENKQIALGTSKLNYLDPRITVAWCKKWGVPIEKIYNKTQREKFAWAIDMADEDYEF
Kind of data set: Inhibition of human DNA topoisomerase 1-mediated relaxation of supercoiled DNA by gel electrophoresis.

As for `C[C@@H]1O[C@H](O[C@H]2CC[C@]3(C)[C@H]4CC=C5[C@@H]6CC(C)(C)CC[C@]6(C(=O)O[C@@H]6O[C@H](CO)[C@@H](O)[C@H](O)[C@H]6O)CC[C@@]5(C(=O)O)[C@]4(C)CC[C@H]3C2(C)C)[C@@H](O)[C@H](O)[C@H]1O`, the “growth inhibition (GI)” value with HL-60, in the data set on PANC-1, with A549 and with PC-3 was “inactive” in each case. Moreover, the “growth inhibition (GI)” value with MRC5 is reported as “Not Active”.

Regarding `C[C@@H]1O[C@H](O[C@@H]2[C@@H](O)[C@H](O[C@H]3CC[C@]4(C)[C@H]5CC=C6[C@@H]7CC(C)(C)CC[C@]7(C(=O)O[C@@H]7O[C@H](CO)[C@@H](O)[C@H](O)[C@H]7O)CC[C@@]6(C)[C@]5(C)CC[C@H]4C3(C)C)O[C@H](C(=O)O)[C@H]2O)[C@H](O)[C@H](O)[C@H]1O`, the “growth inhibition (GI)” value with HL-60, in the data set with PANC-1, in the data set with A549 and in the data set with PC-3 was “inactive” in each case. Moreover, the “growth inhibition (GI)” value in the data set on MRC5 is recorded as “Not Active”.

In the case of `CC1(C)C[C@H]2C3=CC[C@@H]4[C@@]5(C)CC[C@H](O[C@@H]6O[C@H](C(=O)O)[C@@H](O)[C@H](O[C@@H]7O[C@@H](CO)[C@H](O)[C@H]7O)[C@H]6O[C@@H]6O[C@H](CO)[C@H](O)[C@H](O)[C@H]6O)C(C)(C)[C@@H]5CC[C@@]4(C)[C@]3(C)[C@@H](O)[C@@H](O)[C@@]2(CO)[C@@H](O)[C@@H]1O` [AESCULIOSIDE IA], the “growth inhibition (GI)” value with HL-60, in the data set on PANC-1, with A549 and in the data set on PC-3 was “inactive” each time. Moreover, the “growth inhibition (GI)” value in the data set with MRC5 is “Not Active”.

Turning to `CC1(C)C[C@H]2C3=CC[C@@H]4[C@@]5(C)CC[C@H](O[C@@H]6O[C@H](C(=O)O)[C@@H](O)[C@H](O[C@@H]7O[C@@H](CO)[C@H](O)[C@H]7O)[C@H]6O[C@@H]6O[C@H](CO)[C@@H](O)[C@H](O)[C@H]6O)[C@](C)(CO)[C@@H]5CC[C@@]4(C)[C@]3(C)[C@@H](O)[C@@H](O)[C@@]2(CO)[C@@H](O)[C@@H]1O` [AESCULIOSIDE IB], the “growth inhibition (GI)” value in the data set on HL-60, with PANC-1, in the data set with A549 and with PC-3 was “inactive” in each case. For the same compound, the “growth inhibition (GI)” value in the data set with MRC5 is on record as “Not Active”.

For the compound `CC(C)=CCC[C@](C)(O[C@@H]1O[C@H](CO[C@@H]2OC[C@H](O)[C@H](O)[C@H]2O)[C@@H](O)[C@H](O)[C@H]1O)[C@H]1CC[C@]2(C)[C@@H]1[C@H](O)C[C@@H]1[C@@]3(C)CC[C@H](O)C(C)(C)[C@@H]3[C@@H](O)C[C@]12C` [GINSENOSIDE F3], the IC50 (in data set [1]; on DNA topoisomerase 1) was more than 250 µM throughout. Besides, the “growth inhibition (GI)” value in the data set on HL-60, in the data set on PANC-1, with A549 and with PC-3 was “inactive” in each case.

As to `CC(C)=CCC[C@](C)(O[C@@H]1O[C@H](CO[C@H]2O[C@H](CO)[C@@H](O)[C@@H]2O)[C@@H](O)[C@H](O)[C@H]1O)[C@H]1CC[C@]2(C)[C@@H]1[C@H](O)C[C@@H]1[C@@]3(C)CC[C@H](O)C(C)(C)[C@@H]3[C@@H](O)C[C@]12C` [GINSENOSIDE F5], the IC50 (in data set [1]; against DNA topoisomerase 1) was more than 250 µM each time. Besides, the “growth inhibition (GI)” value with HL-60, in the data set on PANC-1, in the data set with A549 and in the data set on PC-3 was “inactive” each time.

As for `CC(C)=CCC[C@](C)(O[C@@H]1O[C@H](CO[C@@H]2O[C@H](CO)[C@@H](O)[C@H](O)[C@H]2O)[C@@H](O)[C@H](O)[C@H]1O)[C@H]1CC[C@]2(C)[C@@H]1[C@H](O)C[C@@H]1[C@@]3(C)CC[C@H](O[C@@H]4O[C@H](CO)[C@@H](O)[C@H](O)[C@H]4O[C@@H]4O[C@H](CO)[C@@H](O)[C@H](O)[C@H]4O)C(C)(C)[C@@H]3CC[C@]12C` [GINSENOSIDE RB1], the IC50 (in data set [1]; against DNA topoisomerase 1) was more than 250 µM throughout. In addition, the “growth inhibition (GI)” value in the data set on HL-60, in the data set on PANC-1, with A549 and in the data set with PC-3 was “inactive” throughout.

Turning to `CC(C)=CCC[C@](C)(O[C@@H]1O[C@H](CO[C@@H]2OC[C@@H](O)[C@H](O)[C@H]2O)[C@@H](O)[C@H](O)[C@H]1O)[C@H]1CC[C@]2(C)[C@@H]1[C@H](O)C[C@@H]1[C@@]3(C)CC[C@H](O[C@@H]4O[C@H](CO)[C@@H](O)[C@H](O)[C@H]4O[C@@H]4O[C@H](CO)[C@@H](O)[C@H](O)[C@H]4O)C(C)(C)[C@@H]3CC[C@]12C` [GINSENOSIDE RB3], the IC50 (in data set [1]; on DNA topoisomerase 1) was more than 250 µM throughout. In addition, the “growth inhibition (GI)” value in the data set with HL-60, with PANC-1, in the data set on A549 and with PC-3 was “inactive” throughout.

Take `CC(C)=CCC[C@](C)(O[C@@H]1O[C@H](CO)[C@@H](O)[C@H](O)[C@H]1O)[C@H]1CC[C@]2(C)[C@@H]1[C@H](O)C[C@@H]1[C@@]3(C)CC[C@H](O[C@@H]4O[C@H](CO)[C@@H](O)[C@H](O)[C@H]4O[C@@H]4O[C@H](CO)[C@@H](O)[C@H](O)[C@H]4O)C(C)(C)[C@@H]3CC[C@]12C` [GINSENOSIDE RD]: the IC50 (in data set [1]; against DNA topoisomerase 1) was more than 250 µM each time. For the same compound, the “growth inhibition (GI)” value in the data set with HL-60, with PANC-1, with A549 and with PC-3 was “inactive” in each case.

Take `CC(C)=CCC[C@](C)(O[C@@H]1O[C@H](CO)[C@@H](O)[C@H](O)[C@H]1O)[C@H]1CC[C@]2(C)[C@@H]1[C@H](O)C[C@@H]1[C@@]3(C)CC[C@H](O)C(C)(C)[C@@H]3[C@@H](O[C@@H]3O[C@H](CO)[C@@H](O)[C@H](O)[C@H]3O[C@@H]3O[C@@H](C)[C@H](O)[C@@H](O)[C@H]3O)C[C@]12C` [GINSENOSIDE RE]: the 50% inhibitory concentration (IC50) (in data set [1]; against DNA topoisomerase 1) was more than 250 µM each time. The “growth inhibition (GI)” value in the data set with HL-60, with PANC-1, with A549 and in the data set with PC-3 was “inactive” in each case.

Consider `CC(C)=CCC[C@](C)(O[C@@H]1O[C@H](CO[C@@H]2O[C@H](CO)[C@@H](O)[C@H](O)[C@H]2O)[C@@H](O)[C@H](O)[C@H]1O)[C@H]1CC[C@]2(C)[C@@H]1[C@H](O)C[C@@H]1[C@@]3(C)CC[C@H](O[C@@H]4O[C@H](CO)[C@@H](O)[C@H](O)[C@H]4O)C(C)(C)[C@@H]3CC[C@]12C` [GYPENOSIDE XVII], for which the IC50 (in data set [1]; at DNA topoisomerase 1) was more than 250 µM each time. Besides, the “growth inhibition (GI)” value with HL-60, with PANC-1, in the data set with A549 and in the data set on PC-3 was “inactive” in each case.

The record behind these values is ChEMBL document CHEMBL1157938, “Cytotoxicity and inhibition of DNA topoisomerase I of polyhydroxylated triterpenoids and triterpenoid glycosides” (Bioorg Med Chem Lett, 2010).
